From US9029396B2, “Substituted indole derivatives” (Novartis AG, priority 2011, dated 2015)
Each block holds one molecule with its values, some of them ahead of it.

Columns and labels:
[1] = Dog pharmacokinetics after oral administration of compound of example No. 1; type: in vivo, Beagle dogs
Description: A single dose of the compound of example 1 (3.0 mg/kg) was administered p.o. to 3 male Beagle dogs. Compound 1 was dosed as an aqueous suspension of the crystalline monohydrate form in Methylcellulose (0.5%): Tween 80 (1%) (90:10). Blood was taken in regular intervals by venipuncture, and the samples were analyzed for a period of up to 24 hours. The compounds of the examples 1, 2, and 3 were quantitatively assessed over time, and the results are tabulated below:
Key pharmacokinetic parameters (mean values±standard deviations (n=3) for 1, 2 and 3 after oral dosing of example No. 1.

PKC-theta = molecular target: T1, PKC-theta (Homo sapiens, UniProt Q04759); assay: Protein kinase C theta assay (Caliper mobility shift); type: biochemical; conditions: full length human recombinant enzyme, 70 μM ATP; read-out: PKCθ (IC50 in nM)
T1 construct: Both enzymes were full length human recombinant protein expressed in insect cells; purchased Invitrogen AG, Basel, Switzerland; host or cells: insect cells
T1 sequence (Q04759 whole entry): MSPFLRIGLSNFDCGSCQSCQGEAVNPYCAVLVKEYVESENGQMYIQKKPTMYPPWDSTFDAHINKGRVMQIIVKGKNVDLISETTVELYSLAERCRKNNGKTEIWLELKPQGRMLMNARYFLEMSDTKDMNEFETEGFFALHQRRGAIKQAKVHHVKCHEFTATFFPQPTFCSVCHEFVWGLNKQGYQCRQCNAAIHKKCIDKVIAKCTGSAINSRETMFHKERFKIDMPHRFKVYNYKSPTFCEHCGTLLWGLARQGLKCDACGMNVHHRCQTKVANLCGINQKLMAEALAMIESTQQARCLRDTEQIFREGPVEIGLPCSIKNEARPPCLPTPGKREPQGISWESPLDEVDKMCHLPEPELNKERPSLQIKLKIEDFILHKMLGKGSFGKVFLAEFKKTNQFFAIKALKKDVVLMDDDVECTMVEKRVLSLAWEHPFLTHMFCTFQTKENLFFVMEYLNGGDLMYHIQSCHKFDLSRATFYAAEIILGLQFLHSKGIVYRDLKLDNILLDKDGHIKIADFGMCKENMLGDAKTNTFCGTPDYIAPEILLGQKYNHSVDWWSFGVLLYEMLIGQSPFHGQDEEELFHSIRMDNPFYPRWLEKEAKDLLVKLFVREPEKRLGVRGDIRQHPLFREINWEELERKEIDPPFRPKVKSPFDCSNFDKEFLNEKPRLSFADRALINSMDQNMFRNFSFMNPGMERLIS
Description: (§1) The compounds of the invention were tested for their activity on different PKC isotypes according to the following method. All assays were performed in 384 well microtiter plates. Each assay plate contained 8-point serial dilutions for 40 test compounds, as well as two 16-point serial dilutions of staurosporine as reference compound, plus 16 high- and 16 low controls. Liquid handling and incubation steps were done on a automated workstation equipped with a Innovadyne Nanodrop Express.
(§2) The assay plates were prepared by addition of 50 nL per well of compound solution in 90% DMSO. The kinase reactions were started by stepwise addition of 4.5 μl per well of a 2× peptide/ATP-solution and 4.5 μl per well of a 2× enzyme solution. The final concentration of reagents during kinase reaction were: 50 mM HEPES, pH 7.5, 1 mM DTT, 0.02% Tween20, 0.02% BSA, 0.6% DMSO, 10 mM beta-glycerophosphate, and 10 μM sodium orthovanadate. The peptide substrate used in the PKC-alpha and PKC-theta assays was Dy495-X5-ME-Mpr-RFARKGSLRQKNV-COOH. […]
(§3) Plates with terminated kinase reactions were transferred to the Caliper LC3000 workstations for reading. Phosphorylated and unphosphorylated peptides were separated using the Caliper microfluidic mobility shift technology and Kinase activities were calculated from the amounts of formed phospho-peptide.

[2] = Stability in gastric and intestinal simulated fluids at 37° C.; type: physicochemical
Description: Stability Assessments Stability of Cpd. Example No. 1 in Gastric and Intestinal Simulated Fluids at 37° C.:
Stability of compound Example No. 3
(Free form/acetate salt form) in gastric and intestinal simulated fluids at 37° C.: […]

PKC-alpha = molecular target: T2, PKC-alpha (Homo sapiens, UniProt P17252); assay: Protein kinase C alpha assay (Caliper mobility shift); type: biochemical; conditions: full length human recombinant enzyme, 17 μM ATP; read-out: PKCα (IC50 in nM)
T2 construct: Both enzymes were full length human recombinant protein expressed in insect cells; purchased Invitrogen AG, Basel, Switzerland; host or cells: insect cells
Description: as §1, §2, §3

[3] = Chemical stability of amorphous and crystalline solid; type: physicochemical; conditions: 1 week
[4] = dog, blood, po, male Beagle dogs, example 1 3.0 mg/kg p.o.

- concentration at 0.083 h ([1]; dog, blood, po, male Beagle dogs, example 1 3.0 mg/kg p.o. (crystalline monohydrate suspension), 0.083 h): 10 nM
- concentration at 0.25 h [1, 4]: 39.6 nM
- concentration at 0.5 h [1, 4]: 31.3 nM
- concentration at 0.75 h ([1]; dog, blood, po, male Beagle dogs, example 1 3.0 mg/kg p.o., 0.75 h): 19.1 nM
- concentration at 1 h ([1]; dog, blood, po, male Beagle dogs, example 1 3.0 mg/kg p.o., 1 h): 6.3 nM
- concentration at 2 h ([1]; dog, blood, po, male Beagle dogs, example 1 3.0 mg/kg p.o., 2 h): 7.7 nM
- concentration at 3 h ([1]; dog, blood, po, male Beagle dogs, example 1 3.0 mg/kg p.o., 3 h): 1 nM
- AUC d.n. ([1]; dose normalized, mean ± SD (n=3), after oral dosing of example No. 1 to dogs): low
- Tmax ([1]; male, Beagle, dog, blood, 3 mg/kg, mean ± SD (n=3), after oral dosing of example No. 1 to dogs): 24 ± 6 min
Compound: Cc1cccc2c(C3=C(c4nc(N5CCNC6(CC6)C5)cc5ccccc45)C(=O)N(CO)C3=O)c[nH]c12 [Example 2, 3-[3-(4,7-Diaza-spiro[2.5]oct-7-yl)-isoquinolin-1-yl]-1-hydroxymethyl-4-(7-methyl-1H-indol-3-yl)-pyrrole-2,5-dione]

- IC50 (PKC-theta): 462 nM
- Amount in Area % of compound example No. 1 ([2]; FaSSIF pH 6.5, 37° C., 0 hours): 95.1 Area %
- Amount in Area % of compound example No. 1 ([2]; FaSSIF pH 6.5, 37° C., 1 hours): 93.8 Area %
- Amount in Area % of compound example No. 1 ([2]; FaSSIF pH 6.5, 37° C., 2.5 hours): 92.3 Area %
- Amount in Area % of compound example No. 1 ([2]; FaSSIF pH 6.5, 37° C., 4.2 hours): 90.5 Area %
- Amount in Area % of compound example No. 1 ([2]; FaSSIF pH 6.5, 37° C., 7 hours): 87.7 Area %
- Amount in Area % of compound example No. 1 ([2]; FeSSIF pH 5.8, 37° C., 0 hours): 95.0 Area %
- Amount in Area % of compound example No. 1 ([2]; FeSSIF pH 5.8, 37° C., 1 hours): 94.9 Area %
- Amount in Area % of compound example No. 1 ([2]; FeSSIF pH 5.8, 37° C., 2.5 hours): 94.8 Area %
- Amount in Area % of compound example No. 1 ([2]; FeSSIF pH 5.8, 37° C., 4.2 hours): 94.8 Area %
- Amount in Area % of compound example No. 1 ([2]; FeSSIF pH 5.8, 37° C., 7 hours): 94.8 Area %
- Amount in Area % of compound example No. 1 ([2]; SGF pH 2, 37° C., 0 hours): 95.9 Area %
- Amount in Area % of compound example No. 1 ([2]; SGF pH 2, 37° C., 1 hours): 95.5 Area %
- Amount in Area % of compound example No. 1 ([2]; SGF pH 2, 37° C., 2.5 hours): 95.3 Area %
- Amount in Area % of compound example No. 1 ([2]; SGF pH 2, 37° C., 4.2 hours): 95.6 Area %
- Amount in Area % of compound example No. 1 ([2]; SGF pH 2, 37° C., 7 hours): 95.6 Area %
- Conversion of prodrug into parent compound in blood ([1]; after administration, example 3 is main component in blood after around an hour): is converted into compound of example 3
- concentration at 0.25 h [1, 4]: 3.1 nM
- concentration at 0.5 h [1, 4]: 1.1 nM
- IC50 (PKC-alpha): 1680 nM
- Purity after exposure ([3]; Amorphous, initial purity 98.5 %, 50 ° C.): 95.8%
- Purity after exposure ([3]; Amorphous, initial purity 98.5 %, 80 ° C.): 89.7%
- Purity after exposure ([3]; Crystalline mono-hydrate, initial purity 100 %, 50 ° C.): 100%
- Purity after exposure ([3]; Crystalline mono-hydrate, initial purity 100 %, 80 ° C.): 100%
Compound: Cc1cccc2c(C3=C(c4nc(N5CCNC6(CC6)C5)cc5ccccc45)C(=O)N(COP(=O)(O)O)C3=O)c[nH]c12 [Example 1, Phosphoric acid mono-[3-[3-(4,7-diaza-spiro[2.5]oct-7-yl)-isoquinolin-1-yl]-4-(7-methyl-1H-indol-3-yl)-2,5-dioxo-2,5-dihydro-pyrrol-1-ylmethyl]ester]
